# Source: patent US12053477B2, “Methods for treating pulmonary fibrosis” (Reviva Pharmaceuticals, Inc., priority 2017, dated 2024)
# Legend:
# Human recombinant 5-HT1A = Human recombinant 5-HT1A (Homo sapiens (Human), UniProt P08908); experiment: Serotonin 5HT1A radioligand binding assay
# [1] = target: Human Cortex or Human recombinant 5-HT2A (Homo sapiens (Human), UniProt P28223); experiment: Serotonin 5HT2A radioligand binding assay
# Human recombinant D2S = Human recombinant D2S (Homo sapiens (Human), UniProt P14416); experiment: Dopamine D2S radioligand binding assay
# [2] = test system: Bleomycin (BLM) induced pulmonary fibrosis; experiment: Bleomycin (BLM) induced pulmonary fibrosis rat model; format: in vivo, Sprague Dawley rats
# Experimental: Study Animals: The investigation involved 34 male Sprague Dawley rats (weights: 275-300 g; ages: 8 weeks; Charles River Laboratories, Quebec, Canada) randomized for equal distribution according to their body weight into four groups.
# Study Methods: On Day 0, animals in Group 1 (Sham; N=5) received one intratracheal administration of the vehicle, 0.250 mL of vehicle 0.9% saline solution (FIG. 1). Animals in Groups 2 to 4 (n=9, 10, 10, respectively) received a single intratracheal instillation of 0.250 mL (5 U/kg-3.33 mg/kg) of bleomycin sulfate (Cayman Chemicals, Ann Arbor, MI) solution. From Day 1 to 10, the vehicle was administered to Groups 1, 2, and 4. […] The vehicle administration was continued to Group 1 (Sham) and Group 2 (BLM) until Day 20. […] During the treatment period, food and water were provided ad libitum to the rats. On each day, animals were monitored for behavior, general health status, and survival. Body weight and food intake were also measured.
# For bleomycin, 50 mg of drug was weighed and dissolved in 12.5 mL of sterile 0.9% Saline solution was added to obtain a solution of 4 mg/mL. The vehicle was created by dissolving 50 g of glucose in 1 L of water to result in a 5% solution.
# On Day 21, animals were anesthetized and instrumented. Hemodynamic parameters (systemic arterial blood pressure, heart rate, and oxygen saturation) were recorded continuously for at least 5 minutes. At the end of the recording, a blood sample was collected. After the animal was exsanguinated, the pulmonary circulation was flushed with 0.9% NaCl, and tissues (lungs, trachea, and heart) were harvested altogether from the thoracic cavity for further analysis.
# Parameters Measured on Surgery Day: Cardiac activity was recorded continuously during the surgical procedure. Cardiac activity was monitored using three electrocardiographic (ECG) contact electrodes placed in a lead-I/II configuration and connected to an IsoDam8 differential amplifier. Heart rate (HR) was recorded using duplicate systems: from the ECG records (RR-intervals) and using an N-595 pulse oximeter attached to the left front paw of the animal. The heart rate values derived from the pulse oximeter were measured in beat per minutes (bpm) using cursor readings in Clampfit 10.2.0.14CA. Blood oxygen saturation (SpO2) was measured using a pulse oximeter signal attached to the left front paw of the animal.
# Systemic arterial blood pressure (SAP) was monitored continuously using an intra-arterial fluid-filled catheter connected to a pressure transducer, with diastolic and systolic pressures values measured in mm Hg. Calculation of mean SAP (mSAP) and pulse pressure (PP) used the following formulas: 1−mSAP=diastolic systemic pressure+([systolic systemic pressure−diastolic systemic pressure]/3); and 2−PP=systolic systemic pressure−diastolic systemic pressure. Pulse pressure was calculated as the difference between systolic and diastolic readings.
# After being harvested, the trachea was connected to the cannula of a perfusion system. The left lung was clamped while 5 mL of cold PBS solution was injected in the trachea to perform bronchoalveolar lavage to obtain fluid (BALF) of the right lobe of the lungs and was collected for further analysis (Total cell counts and cytokines measurement). Once the BALF sample was collected, it was centrifuged at 1200 rpm for 10 minutes at 4° C. The supernatant was frozen at −80° C. until cytokines analysis. The cells were then resuspended in PBS and counted with a hemocytometer.
# Organ weights were expressed as relative percentages and were calculated as follows: Relative organ weight=(organ weight×100)/body weight.
# Histological Preparation and Categorization: For each rat, the left lobe of the lungs was harvested, perfused and fixed with 10% neutral buffered formalin. A transversal section of the middle left lobe was cut and forwarded in 10% NBF to the Institute for Research in Immunology and Cancer (Montreal, Quebec, Canada). […]
# [3] = RPI: Day 10 to 20, Day 21, vs BLM, P<0.01
# [4] = RPI: Day 10 to 20, Day 21, vs BLM, P<0.05
# [5] = RPT: Day 1 to 20, Day 21, vs BLM, P<0.001
# [6] = RPT: Day 1 to 20, Day 21, vs BLM, P<0.01
# [7] = RPT: Day 1 to 20, Day 21, vs BLM, P<0.05
# [8] = all groups (RPT and RPI), Day 21
# Sequence of Human Cortex or Human recombinant 5-HT2A (P28223 whole entry, looked up): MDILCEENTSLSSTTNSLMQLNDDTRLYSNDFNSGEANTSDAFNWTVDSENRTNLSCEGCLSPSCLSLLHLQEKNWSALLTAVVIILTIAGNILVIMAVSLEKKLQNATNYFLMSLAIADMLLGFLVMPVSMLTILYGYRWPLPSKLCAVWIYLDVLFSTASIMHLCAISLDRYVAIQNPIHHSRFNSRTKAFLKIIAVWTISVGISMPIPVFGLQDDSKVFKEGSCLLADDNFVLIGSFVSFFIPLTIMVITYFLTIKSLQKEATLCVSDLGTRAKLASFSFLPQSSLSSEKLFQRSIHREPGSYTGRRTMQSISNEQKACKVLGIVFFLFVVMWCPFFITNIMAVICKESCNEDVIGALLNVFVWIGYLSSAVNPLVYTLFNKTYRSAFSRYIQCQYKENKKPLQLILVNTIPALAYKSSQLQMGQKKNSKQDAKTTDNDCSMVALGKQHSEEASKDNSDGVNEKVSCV
# Sequence of Human recombinant D2S (P14416 other isoform, or with tags, fused parts or gaps): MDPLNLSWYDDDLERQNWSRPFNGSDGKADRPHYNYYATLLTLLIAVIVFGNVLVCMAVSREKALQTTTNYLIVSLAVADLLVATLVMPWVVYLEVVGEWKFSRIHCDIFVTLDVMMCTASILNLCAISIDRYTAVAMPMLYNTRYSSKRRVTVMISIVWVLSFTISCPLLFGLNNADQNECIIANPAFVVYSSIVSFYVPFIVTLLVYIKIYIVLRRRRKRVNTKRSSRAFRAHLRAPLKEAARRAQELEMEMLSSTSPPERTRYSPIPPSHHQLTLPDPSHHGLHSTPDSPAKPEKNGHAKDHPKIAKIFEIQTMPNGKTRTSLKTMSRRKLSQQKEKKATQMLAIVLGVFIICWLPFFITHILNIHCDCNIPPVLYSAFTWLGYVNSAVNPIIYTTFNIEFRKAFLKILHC
compound,measurement,setting,value
"6-(4-(4-(2-methoxyphenyl)piperazin-1-yl)butoxy)-2H-benzo[b][1,4]oxazin-3(-4H)-one [Compound B]",Ki,Human recombinant 5-HT1A,0.65 nM
same,Ki,[1],118 nM
same,Ki,Human recombinant D2S,0.3 nM
"O=C1COc2ccc(OCCCCN3CCN(c4cccc(Cl)c4Cl)CC3)cc2N1 [Compound A, 6-(4-(4-(2,3-dichlorophenyl)piperazin-1-yl)butoxy)-2H-benzo[b][1,4]oxazin-3(4H)-one]",survival rate at Day 10,"[2]; Group 3, 15 mg/kg b.i.d. gavage from Day 1 (text calls it RPI; Group 3 = RPT)",100%
same,survival rate at Day 21,[2]; RPI: 15 mg/kg b.i.d. gavage Day 10 to 20,89.5%
same,BALF IL6,"[2]; RPI: Day 10 to 20, Day 21","numerically (RPT, RPI) reduced"
same,BALF MIP1,"[2]; RPI: Day 10 to 20, Day 21",None of the treatments statistically reversed
same,BALF total protein,"[2]; RPI: Day 10 to 20, Day 21",numerical improvement reduction
same,arterial pulse pressure,"[2]; RPI: Day 10 to 20, Day 21",slightly restored
same,blood oxygen saturation,"[2]; RPI: Day 10 to 20, Day 21",improved
same,cardiac output,"[2]; RPI: Day 10 to 20, Day 21",slightly restored
same,lung weight,"[2]; RPI: Day 10 to 20, Day 21",decreased
same,BALF IP10,[2]; [3],significant reductions
same,BALF RANTES,[2]; [3],significantly reduced
same,lung hydroxyproline concentration,[2]; [3],significant diminution
same,BALF MCP1,[2]; [4],significant decrease
same,BALF total cell count,[2]; [4],significantly reduced
same,blood lactate levels,[2]; [4],diminution
same,respiratory resistance,"[2]; RPI: Day 10 to 20, Day 21, vs BLM, P=0.10",showed improvement
same,survival rate at Day 21,[2]; RPT: 15 mg/kg b.i.d. gavage Day 1 to 20,90%
same,BALF IL6,"[2]; RPT: Day 1 to 20, Day 21","numerically (RPT, RPI) reduced"
same,BALF MCP1,"[2]; RPT: Day 1 to 20, Day 21",reductions
same,BALF MIP1,"[2]; RPT: Day 1 to 20, Day 21",slightly reduced
same,"Ashcroft Score (H&E staining), lung parenchymal fibrotic changes",[2]; [5],significant reduction
same,percentage of collagen disposition in the lung (Masson's trichrome staining),[2]; [5],significantly reduced
same,BALF IP10,[2]; [6],significant reductions
same,BALF RANTES,[2]; [6],significantly reduced
same,blood lactate levels,[2]; [6],diminution
same,body weight,[2]; [6],significantly alleviated BLM-induced weight loss
same,cardiac output,[2]; [6],restored cardiac output
same,BALF total cell count,[2]; [7],reversal
same,BALF total protein,[2]; [7],reversal
same,arterial pulse pressure,[2]; [7],improved arterial pulse pressure
same,blood oxygen saturation,[2]; [7],normalization
same,lung hydroxyproline concentration,[2]; [7],significant diminution
same,lung weight,[2]; [7],significantly lower
same,respiratory resistance,[2]; [7],significant reduction
same,body weight,"[2]; administered from Day 10 (RPI; printed RPT), Day 21, vs BLM",slightly increased body weight
same,heart rate,[2]; [8],relatively similar in all groups
same,systemic arterial pressure,[2]; [8],no differences were noted among the groups
